The subject of the first assay is nightshade (eastern black nightshade, Solanum ptycanthum). Description: Test B pre-/postemergence plant response. Format: in vivo. As to conditions: 250 g ai/ha, Preemergence, 0 to 100 scale. The essentials:
(§1)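 Visual ratings on a 0–100 scale (100 = complete control) were made versus untreated controls 13–15 days after treatment in a greenhouse. Compounds in surfactant-containing non-phytotoxic solvent were applied preemergence to seeds in loam–sand blend or postemergence to 1- to 4-leaf plants (2–18 cm).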
For the compound `Cc1ccccc1-n1c(-c2cccc(Cl)c2)ncc(C(=O)C2=C(O)CCCC2=O)c1=O` [Compound 36], the “Plant response rating, Nightshade” value was 98.

With `O=C1CCCC(O)=C1C(=O)c1cnc(-c2ccccc2)n(-c2cccc(Br)c2)c1=O` [Compound 38], the “Plant response rating, Nightshade” value was found to be 100.

Take `Cc1c(Cl)cccc1-n1c(-c2ccccc2)ncc(C(=O)C2=C(O)CCCC2=O)c1=O` [Compound 40]: the “Plant response rating, Nightshade” value stood at 100.

In the case of `CCCCc1ncc(C(=O)C2=C(O)CCCC2=O)c(=O)n1-c1ccccc1` [Compound 42], the “Plant response rating, Nightshade” value is given as 100.

In the case of `Cc1ccc(F)cc1-n1c(-c2ccccc2)ncc(C(=O)C2=C(O)CCCC2=O)c1=O` [Compound 44], the “Plant response rating, Nightshade” value came out at 100.

Still in this assay, the particulars now being: Preemergence, 31 g ai/ha; scale 0 to 100 (0 no effect, 100 complete control).
Turning to `Cc1ccccc1-n1c(-c2cccc(Cl)c2)ncc(C(=O)C2=C(O)CCCC2=O)c1=O` [Compound 36], the “Plant response rating, Nightshade” value is reported as 80.

For the compound `O=C1CCCC(O)=C1C(=O)c1cnc(-c2ccccc2)n(-c2cccc(Br)c2)c1=O` [Compound 38], the “Plant response rating, Nightshade” value came to 90.

Take `Cc1c(Cl)cccc1-n1c(-c2ccccc2)ncc(C(=O)C2=C(O)CCCC2=O)c1=O` [Compound 40]: the “Plant response rating, Nightshade” value is listed as 65.

Consider `CCCCc1ncc(C(=O)C2=C(O)CCCC2=O)c(=O)n1-c1ccccc1` [Compound 42], for which the “Plant response rating, Nightshade” value is 100.

As for `Cc1ccc(F)cc1-n1c(-c2ccccc2)ncc(C(=O)C2=C(O)CCCC2=O)c1=O` [Compound 44], the “Plant response rating, Nightshade” value stood at 95.

The same assay, now with this note: Preemergence, 62 g ai/ha; scale 0 to 100 (0 no effect, 100 complete control).
As to `Cc1ccccc1-n1c(-c2cccc(Cl)c2)ncc(C(=O)C2=C(O)CCCC2=O)c1=O` [Compound 36], the “Plant response rating, Nightshade” value is recorded as 95.

Consider `O=C1CCCC(O)=C1C(=O)c1cnc(-c2ccccc2)n(-c2cccc(Br)c2)c1=O` [Compound 38], for which the “Plant response rating, Nightshade” value came out at 95.

Regarding `Cc1c(Cl)cccc1-n1c(-c2ccccc2)ncc(C(=O)C2=C(O)CCCC2=O)c1=O` [Compound 40], the “Plant response rating, Nightshade” value worked out at 98.

As to `CCCCc1ncc(C(=O)C2=C(O)CCCC2=O)c(=O)n1-c1ccccc1` [Compound 42], the “Plant response rating, Nightshade” value is on record as 100.

Consider `Cc1ccc(F)cc1-n1c(-c2ccccc2)ncc(C(=O)C2=C(O)CCCC2=O)c1=O` [Compound 44], for which the “Plant response rating, Nightshade” value is 98.

The assay is the same for the next values; noted with them: Preemergence, 125 g ai/ha; 0 to 100 scale.
As to `Cc1ccccc1-n1c(-c2cccc(Cl)c2)ncc(C(=O)C2=C(O)CCCC2=O)c1=O` [Compound 36], the “Nightshade plant response rating” value was 95.

Take `O=C1CCCC(O)=C1C(=O)c1cnc(-c2ccccc2)n(-c2cccc(Br)c2)c1=O` [Compound 38]: the “Nightshade plant response rating” value is listed as 98.

With `Cc1c(Cl)cccc1-n1c(-c2ccccc2)ncc(C(=O)C2=C(O)CCCC2=O)c1=O` [Compound 40], the “Nightshade plant response rating” value came to 98.

As for `CCCCc1ncc(C(=O)C2=C(O)CCCC2=O)c(=O)n1-c1ccccc1` [Compound 42], the “Nightshade plant response rating” value is on record as 100.

`Cc1ccc(F)cc1-n1c(-c2ccccc2)ncc(C(=O)C2=C(O)CCCC2=O)c1=O` [Compound 44]: the “Nightshade plant response rating” value worked out at 100.

In the next assay the test system is galium (catchweed bedstraw, Galium aparine). Description: Test B pre-/postemergence plant response. Format: in vivo. As to conditions: 250 g ai/ha, Preemergence, 0 to 100 scale. The essentials: as §1
For `Cc1ccccc1-n1c(-c2cccc(Cl)c2)ncc(C(=O)C2=C(O)CCCC2=O)c1=O` [Compound 36], the “Plant response rating, Galium” value is listed as 95.

As to `O=C1CCCC(O)=C1C(=O)c1cnc(-c2ccccc2)n(-c2cccc(Br)c2)c1=O` [Compound 38], the “Plant response rating, Galium” value is reported as 85.

For `Cc1c(Cl)cccc1-n1c(-c2ccccc2)ncc(C(=O)C2=C(O)CCCC2=O)c1=O` [Compound 40], the “Plant response rating, Galium” value worked out at 90.

Take `CCCCc1ncc(C(=O)C2=C(O)CCCC2=O)c(=O)n1-c1ccccc1` [Compound 42]: the “Plant response rating, Galium” value turned out to be 50.

Regarding `Cc1ccc(F)cc1-n1c(-c2ccccc2)ncc(C(=O)C2=C(O)CCCC2=O)c1=O` [Compound 44], the “Plant response rating, Galium” value is listed as 98.

The assay is the same for the next values; noted with them: Preemergence, 31 g ai/ha; scale 0 to 100 (0 no effect, 100 complete control).
As to `Cc1ccccc1-n1c(-c2cccc(Cl)c2)ncc(C(=O)C2=C(O)CCCC2=O)c1=O` [Compound 36], the “Plant response rating, Galium” value came to 10.

Regarding `O=C1CCCC(O)=C1C(=O)c1cnc(-c2ccccc2)n(-c2cccc(Br)c2)c1=O` [Compound 38], the “Plant response rating, Galium” value is 0.

Take `Cc1c(Cl)cccc1-n1c(-c2ccccc2)ncc(C(=O)C2=C(O)CCCC2=O)c1=O` [Compound 40]: the “Plant response rating, Galium” value was 50.

`CCCCc1ncc(C(=O)C2=C(O)CCCC2=O)c(=O)n1-c1ccccc1` [Compound 42]: the “Plant response rating, Galium” value is 0.

Consider `Cc1ccc(F)cc1-n1c(-c2ccccc2)ncc(C(=O)C2=C(O)CCCC2=O)c1=O` [Compound 44], for which the “Plant response rating, Galium” value amounted to 0.

The assay is the same for the next values; noted with them: Preemergence, 62 g ai/ha; scale 0 to 100 (0 no effect, 100 complete control).
For `Cc1ccccc1-n1c(-c2cccc(Cl)c2)ncc(C(=O)C2=C(O)CCCC2=O)c1=O` [Compound 36], the “Plant response rating, Galium” value worked out at 80.

As to `O=C1CCCC(O)=C1C(=O)c1cnc(-c2ccccc2)n(-c2cccc(Br)c2)c1=O` [Compound 38], the “Plant response rating, Galium” value worked out at 40.

As for `Cc1c(Cl)cccc1-n1c(-c2ccccc2)ncc(C(=O)C2=C(O)CCCC2=O)c1=O` [Compound 40], the “Plant response rating, Galium” value was 70.

Turning to `CCCCc1ncc(C(=O)C2=C(O)CCCC2=O)c(=O)n1-c1ccccc1` [Compound 42], the “Plant response rating, Galium” value is reported as 0.

As for `Cc1ccc(F)cc1-n1c(-c2ccccc2)ncc(C(=O)C2=C(O)CCCC2=O)c1=O` [Compound 44], the “Plant response rating, Galium” value was 65.

The assay is the same for the next values; noted with them: Preemergence, 125 g ai/ha; 0 to 100 scale.
Turning to `Cc1ccccc1-n1c(-c2cccc(Cl)c2)ncc(C(=O)C2=C(O)CCCC2=O)c1=O` [Compound 36], the “Galium plant response rating” value was determined as 80.

As for `O=C1CCCC(O)=C1C(=O)c1cnc(-c2ccccc2)n(-c2cccc(Br)c2)c1=O` [Compound 38], the “Galium plant response rating” value was found to be 85.

With `Cc1c(Cl)cccc1-n1c(-c2ccccc2)ncc(C(=O)C2=C(O)CCCC2=O)c1=O` [Compound 40], the “Galium plant response rating” value was determined as 85.

For the compound `CCCCc1ncc(C(=O)C2=C(O)CCCC2=O)c(=O)n1-c1ccccc1` [Compound 42], the “Galium plant response rating” value is given as 10.

In the case of `Cc1ccc(F)cc1-n1c(-c2ccccc2)ncc(C(=O)C2=C(O)CCCC2=O)c1=O` [Compound 44], the “Galium plant response rating” value came out at 65.

A further assay has as its system sunflower (common oilseed sunflower, Helianthus annuus). Description: Test B pre-/postemergence plant response. Format: in vivo. Particulars: 250 g ai/ha, Preemergence, 0 to 100 scale. In outline:
as §1
For the compound `Cc1ccccc1-n1c(-c2cccc(Cl)c2)ncc(C(=O)C2=C(O)CCCC2=O)c1=O` [Compound 36], the “Plant response rating, Sunflower” value worked out at 85.

For the compound `O=C1CCCC(O)=C1C(=O)c1cnc(-c2ccccc2)n(-c2cccc(Br)c2)c1=O` [Compound 38], the “Plant response rating, Sunflower” value was 75.

Take `Cc1c(Cl)cccc1-n1c(-c2ccccc2)ncc(C(=O)C2=C(O)CCCC2=O)c1=O` [Compound 40]: the “Plant response rating, Sunflower” value is 80.

Turning to `CCCCc1ncc(C(=O)C2=C(O)CCCC2=O)c(=O)n1-c1ccccc1` [Compound 42], the “Plant response rating, Sunflower” value worked out at 75.

As to `Cc1ccc(F)cc1-n1c(-c2ccccc2)ncc(C(=O)C2=C(O)CCCC2=O)c1=O` [Compound 44], the “Plant response rating, Sunflower” value amounted to 80.

The same assay, now with this note: Preemergence, 31 g ai/ha; scale 0 to 100 (0 no effect, 100 complete control).
As for `Cc1ccccc1-n1c(-c2cccc(Cl)c2)ncc(C(=O)C2=C(O)CCCC2=O)c1=O` [Compound 36], the “Plant response rating, Sunflower” value amounted to 0.

For the compound `O=C1CCCC(O)=C1C(=O)c1cnc(-c2ccccc2)n(-c2cccc(Br)c2)c1=O` [Compound 38], the “Plant response rating, Sunflower” value came to 0.

`Cc1c(Cl)cccc1-n1c(-c2ccccc2)ncc(C(=O)C2=C(O)CCCC2=O)c1=O` [Compound 40]: the “Plant response rating, Sunflower” value was 20.

As for `CCCCc1ncc(C(=O)C2=C(O)CCCC2=O)c(=O)n1-c1ccccc1` [Compound 42], the “Plant response rating, Sunflower” value worked out at 0.

Turning to `Cc1ccc(F)cc1-n1c(-c2ccccc2)ncc(C(=O)C2=C(O)CCCC2=O)c1=O` [Compound 44], the “Plant response rating, Sunflower” value is 10.

The assay is the same for the next values; noted with them: Preemergence, 125 g ai/ha; 0 to 100 scale.
Take `Cc1ccccc1-n1c(-c2cccc(Cl)c2)ncc(C(=O)C2=C(O)CCCC2=O)c1=O` [Compound 36]: the “Sunflower plant response rating” value was found to be 55.

Regarding `O=C1CCCC(O)=C1C(=O)c1cnc(-c2ccccc2)n(-c2cccc(Br)c2)c1=O` [Compound 38], the “Sunflower plant response rating” value was 25.

Turning to `Cc1c(Cl)cccc1-n1c(-c2ccccc2)ncc(C(=O)C2=C(O)CCCC2=O)c1=O` [Compound 40], the “Sunflower plant response rating” value turned out to be 75.

For `CCCCc1ncc(C(=O)C2=C(O)CCCC2=O)c(=O)n1-c1ccccc1` [Compound 42], the “Sunflower plant response rating” value is 55.

On to `Cc1ccc(F)cc1-n1c(-c2ccccc2)ncc(C(=O)C2=C(O)CCCC2=O)c1=O` [Compound 44], for which the “Sunflower plant response rating” value is on record as 75.

The values are drawn from patent US8952024B2, “Herbicidal pyrimidone derivatives” (E I du Pont de Nemours and Company, priority 2009, dated 2015).
